Structures are written as SMILES. Converted amounts (≈) assume the structure as drawn.

One assay deals with KB Cell. Kind of assay: Inhibition of multiplication (growth) of KB cells, in vitro. The class given is cell-based, human. To be noted: Homo sapiens, 72 h, concentration for 50% growth inhibition vs control, compound added Day 1, cells counted Day 4, read-out: Conc.(ED50). Here is the method: KB cells, carcinomatous cell tumors, were transferred to in vitro floatation incubator systems, and added respectively with compounds of Examples 1 to 33. The results of cultivation added with these compounds were compared with the results of the control which was not added with any compound.
Cell used: KB Cell (Originating from human mouth epidermal cancer) Culture medium: Eagles minimal essential medium (MEM) supplemented with 10% calf serum Cultivation: 37°C carbon dioxide gas incubator (5% CO₂)
Day 0: KB cells were diluted in the culture medium to adjust the KB cell density to 2 x 10⁴/ml. Three ml of the cell suspension was inoculated in each of 60 mm plastic dishes. Two dishes per standard dosage were used. Day 1: Test compound was added to the medium so that the final concentrations were set to 100, 30, 10, 3 and 1 µg/ml. Day 4: Cells were scraped off from the dish using trypsin, and the cell number was countered using a Corter counter.
In generally accordance with the stipulations set forth by the National Cancer Institute (NCI), U.S.A., the concentration of compound necessary for exerting 50% growth inhibition (ED₅₀) compared to the control was determined. A compound was judged as effective when ED₅₀ was less than 4 µg/ml.

For the next assay, the system named is P-388. Kind of assay: Prolongation of life span in P-388 implanted mice. In kind it is in vivo, CDF mouse. The settings on record: for response vs control in vivo at 12.5 mg/kg / response vs control in vivo at 25 mg/kg / response vs control in vivo at 50 mg/kg / response vs control in vivo at 100 mg/kg / response vs control in vivo at 200 mg/kg / response vs control in vivo at 400 mg/kg: P388, ip, T/C %, Day 1 and Day 5, P-388 10⁶ cells/mouse i.p., read-out: Ratio of Life Prolongation (%); for cure: cured mice per group of 6. Here is the method: Animal used: CDF mouse (6 mice/group) Tumor: P-388 Number of implanted cells: 10⁶ cells/mouse Implanted site: i.p. Day of administration: Day 1 and Day 5 Dosage: LD₅₀ or 400 mg/kg/day at the maximum

Regarding `COc1cc(NS(C)(=O)=O)ccc1Nc1c2ccccc2nc2c1[nH]c1ccc(F)cc12` [Compound 19, 2-fluoro-6-(4-methanesulfonamide-2-methoxyanilino)indolo[3,2-b]quinoline], the IC50 with KB Cell was below 0.3 µg/mL. In addition, in the assay with P-388 (dosage 12.5 mg/kg), the response vs control in vivo at 12.5 mg/kg was 313% and the cure was 3/6. Besides, in the assay on P-388 (dosage 25 mg/kg), the response vs control in vivo at 25 mg/kg is 252% and the cure is reported as 2/6.
On to `COc1cc(O)ccc1Nc1c2ccccc2nc2c1[nH]c1ccccc12` [Compound 20], for which, in the assay with KB Cell, the IC50 is below 0.3 µg/mL. Also, the response vs control in vivo at 12.5 mg/kg in the assay with P-388 (dosage 12.5 mg/kg) was determined as 179%. Further, in the assay with P-388 (dosage 25 mg/kg), the response vs control in vivo at 25 mg/kg came out at 131% and the cure was 1/6.
As for `COc1cc(OC(C)=O)ccc1Nc1c2ccccc2nc2c1[nH]c1ccccc12` [Compound 21], in the assay with KB Cell, the IC50 was below 0.3 µg/mL. In addition, in the assay with P-388 (dosage 25 mg/kg), the response vs control in vivo at 25 mg/kg was found to be 179%. For the same compound, in the assay with P-388 (dosage 50 mg/kg), the response vs control in vivo at 50 mg/kg was found to be 185% and the cure is reported as 1/6.
With `COc1cc(NS(C)(=O)=O)ccc1Nc1c2ccccc2nc2c1[nH]c1ccc(N)cc12` [Compound 22, 2-amino-6-(4-methanesulfonamide-2-methoxyanilino)indolo[3,2-b]quinoline], the IC50 with KB Cell is below 0.3 µg/mL. In addition, the response vs control in vivo at 12.5 mg/kg in the assay with P-388 (dosage 12.5 mg/kg) worked out at 171%. For the same compound, the response vs control in vivo at 25 mg/kg in the assay on P-388 (dosage 25 mg/kg) was found to be 200%.
In the case of `COc1cc(NS(C)(=O)=O)ccc1Nc1c2ccccc2nc2c1[nH]c1ccc(NC3OC(COC(C)=O)C(OC(C)=O)C(OC(C)=O)C3OC(C)=O)cc12` (stereo not drawn) [Compound 23, N-{4-[(7-(2,3,4,6-tetra-O-acetylglycosyl-1-amino)-10H-indolo[3,2-b]quinoline-11-yl)amino]-3-methoxyphenyl} methanesulfonamide], the IC50 in the assay with KB Cell was below 0.3 µg/mL. Further, in the assay on P-388 (dosage 12.5 mg/kg), the response vs control in vivo at 12.5 mg/kg was 300% and the cure is on record as 2/6. Moreover, in the assay on P-388 (dosage 25 mg/kg), the response vs control in vivo at 25 mg/kg stood at 148% and the cure is reported as 1/6. Besides, the response vs control in vivo at 50 mg/kg with P-388 (dosage 50 mg/kg) worked out at 58%.
For the compound `COc1cc(NS(C)(=O)=O)ccc1Nc1c2ccccc2nc2c1[nH]c1ccc(NC3OC(CO)C(O)C(O)C3O)cc12` (stereo not drawn) [Compound 24, N-{4-[(7-(glycosyl-1-amino)-10H-indolo[3,2-b]quinoline-11-yl)amino]-3-methoxyphenyl} methanesulfonamide], the IC50 with KB Cell was below 0.3 µg/mL. Also, in the assay with P-388 (dosage 12.5 mg/kg), the response vs control in vivo at 12.5 mg/kg was 213% and the cure is reported as 2/6. Further, in the assay with P-388 (dosage 25 mg/kg), the response vs control in vivo at 25 mg/kg worked out at 145%. Moreover, the response vs control in vivo at 50 mg/kg in the assay with P-388 (dosage 50 mg/kg) was found to be 90%.
Regarding `COc1cc(NS(C)(=O)=O)ccc1Nc1c2ccccc2nc2c1[nH]c1ccc(NC(C)=O)cc12` [Compound 25], the IC50 with KB Cell was below 0.3 µg/mL. Moreover, the response vs control in vivo at 12.5 mg/kg in the assay on P-388 (dosage 12.5 mg/kg) was 135%. For the same compound, in the assay with P-388 (dosage 25 mg/kg), the response vs control in vivo at 25 mg/kg is 174%.
Regarding `COc1cc(NS(C)(=O)=O)ccc1Nc1c2ccccc2nc2c1[nH]c1ccc(NS(C)(=O)=O)cc12` [Compound 26, 2-methanesulfonamide-6-(4-methanesulfonamide-2-methoxyanilino)indolo[3,2-b]quinoline], the IC50 in the assay with KB Cell is below 0.3 µg/mL. The response vs control in vivo at 12.5 mg/kg in the assay with P-388 (dosage 12.5 mg/kg) is 126%. Further, in the assay on P-388 (dosage 25 mg/kg), the response vs control in vivo at 25 mg/kg came to 111%.
As to `COc1cc(NS(C)(=O)=O)ccc1Nc1c2cccc(C)c2nc2c1oc1ccccc12` [Compound 27, 6-(4-methanesulfonamide-2-methoxyanilino)-10-methylbenzofurano[3,2-b]quinoline], the IC50 in the assay on KB Cell amounted to 0.38 µg/mL (≈ 0.849 µM). For the same compound, the response vs control in vivo at 100 mg/kg in the assay on P-388 (dosage 100 mg/kg) amounted to 230%. Moreover, in the assay with P-388 (dosage 200 mg/kg), the response vs control in vivo at 200 mg/kg is 250% and the cure is recorded as 1/6.
With `COc1cc(NS(C)(=O)=O)ccc1Nc1c2cccc(C)c2nc2c1oc1cccc(C)c12` [Compound 28, 6-(4-methanesulfonamide-2-methoxyanilino)-1,10-dimethylbenzofurano[3,2-b]quinoline], the IC50 in the assay with KB Cell was below 0.3 µg/mL. In addition, the response vs control in vivo at 50 mg/kg in the assay with P-388 (dosage 50 mg/kg) amounted to 204%. For the same compound, in the assay with P-388 (dosage 100 mg/kg), the response vs control in vivo at 100 mg/kg came to 269%.
As to `COc1cc(NS(C)(=O)=O)ccc1Nc1c2cccc(C)c2nc2c1oc1cc(C)ccc12` [Compound 29, 6-(4-methanesulfonamide-2-methoxyanilino)-3,10-dimethylbenzofurano[3,2-b]quinoline], the IC50 with KB Cell was below 0.3 µg/mL. Also, in the assay with P-388 (dosage 100 mg/kg), the response vs control in vivo at 100 mg/kg stood at 204% and the cure is given as 1/6. Besides, in the assay on P-388 (dosage 200 mg/kg), the response vs control in vivo at 200 mg/kg worked out at 269% and the cure is 1/6. The response vs control in vivo at 400 mg/kg in the assay on P-388 (dosage 400 mg/kg) was 76%.
On to `COc1cc(NS(C)(=O)=O)ccc1Nc1c2ccccc2nc2c1oc1cccc(C)c12` [Compound 30, 6-(4-methanesulfonamide-2-methoxyanilino)-1-methylbenzofurano[3,2-b]quinoline], for which the IC50 in the assay with KB Cell worked out at 1.5 µg/mL (≈ 3.35 µM). Further, in the assay on P-388 (dosage 100 mg/kg), the response vs control in vivo at 100 mg/kg stood at 105%. Also, in the assay with P-388 (dosage 200 mg/kg), the response vs control in vivo at 200 mg/kg was determined as 108%. The response vs control in vivo at 400 mg/kg with P-388 (dosage 400 mg/kg) worked out at 151%.
For the compound `COc1cc(NS(C)(=O)=O)ccc1Nc1c2ccccc2nc2c1oc1cc(C)ccc12` [Compound 31, 6-(4-methanesulfonamide-2-methoxyanilino)-3-methylbenzofurano[3,2-b]quinoline], in the assay with KB Cell, the IC50 is below 0.3 µg/mL. For the same compound, in the assay with P-388 (dosage 100 mg/kg), the response vs control in vivo at 100 mg/kg came to 147%. Besides, in the assay with P-388 (dosage 200 mg/kg), the response vs control in vivo at 200 mg/kg was found to be 175% and the cure was 1/6. For the same compound, in the assay on P-388 (dosage 400 mg/kg), the response vs control in vivo at 400 mg/kg stood at 219% and the cure is 1/6.
`COc1cc(NS(C)(=O)=O)ccc1Nc1c2cccc(C)c2nc2c1sc1ccccc12` [Compound 32, 6-(4-methanesulfonamide-2-methoxyanilino)-10-methylbenzothieno[3,2-b]quinoline]: the IC50 in the assay with KB Cell is 1.4 µg/mL (≈ 3.02 µM). In addition, in the assay with P-388 (dosage 100 mg/kg), the response vs control in vivo at 100 mg/kg was 137%. Also, the response vs control in vivo at 200 mg/kg in the assay with P-388 (dosage 200 mg/kg) turned out to be 167%. The response vs control in vivo at 400 mg/kg in the assay with P-388 (dosage 400 mg/kg) is 228%.
Take `COc1cc(NS(C)(=O)=O)ccc1Nc1c2ccccc2nc2c1sc1cccc(C)c12` [Compound 33, 6-(4-methanesulfonamide-2-methoxyanilino)-1-methylbenzothieno[3,2-b]quinoline]: the IC50 with KB Cell was below 0.3 µg/mL. Moreover, in the assay on P-388 (dosage 100 mg/kg), the response vs control in vivo at 100 mg/kg came to 191%. In the assay on P-388 (dosage 200 mg/kg), the response vs control in vivo at 200 mg/kg came out at 255% and the cure is 1/6. For the same compound, in the assay on P-388 (dosage 400 mg/kg), the response vs control in vivo at 400 mg/kg was 280% and the cure is 1/6.

The values above are taken from patent EP0376166A1, “Condensed quinoline system compound and process of preparation thereof” (MECT CORPORATION, priority 1988, dated 1990).
